In the supplement of paper PMC10290057:
Structures can show the parent of a compound that is named as a salt.

Key:
HCT116 [1] = test: AC50 cell viability (CellTiter-Glo); higher = less potent; details: 48 h
HCT116 [2] = test: efficacy (fitted maximal change in viability relative to DMSO control); higher = less cytotoxic (negative = loss of viability); details: 48 h
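Throughout, for AC50 cell viability (CellTiter-Glo): HCT116 colorectal carcinoma cells screened at five concentrations per compound, luminescent viability scaled between DMSO wells and empty wells on each plate, curves fitted per compound.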
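Throughout, for efficacy (fitted maximal change in viability relative to DMSO control): Luminescence-based viability readout, five doses per compound, normalized against on-plate DMSO and empty-well controls, followed by dose-response curve fitting for every drug.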

Work on `COc1cc([S+](C)(=O)[O-])ccc1Nc1nc2ccc(-c3ccc(NC(=O)[C@H](C)c4ccc(F)cc4)cc3)cn2n1` yielded an AC50 cell viability (HCT116 [1]) of 0.132 µM and an efficacy (HCT116 [2]) of -30.6%.
Work on `O=C(c1ccc(OCCN2CCCCC2)cc1)c1c(-c2ccc(O)cc2)sc2cc(O)ccc12` [Raloxifene hydrochloride] yielded an AC50 cell viability (HCT116 [1]) of 20.9 µM and an efficacy (HCT116 [2]) of -94.4%.
`C[C@H](NC(=O)[C@@H]1C[C@@H](O)CN1C(=O)[C@@H](NC(=O)COCCCOCCNC(=O)C[C@@H]2\N=C(C3=CC=C(Cl)C=C3)/C4=C(SC(=C4C)C)[N]5C(=NN=C25)C)C(C)(C)C)C6=CC=C(C=C6)C7=C(C)N=CS7` [ARV-771] gave an AC50 cell viability (HCT116 [1]) of 0.148 µM and an efficacy (HCT116 [2]) of -91%.
`Cc1n[nH]c2ccc(-c3cncc(OC[C@@H](N)Cc4ccccc4)c3)cc12` was tested, and the AC50 cell viability (HCT116 [1]) was 0.59 µM and the efficacy (HCT116 [2]) was -69.5%.
Molecule `CCCCCNC(=N)N/N=C/c1c[nH]c2ccc(OC)cc12` [Tegaserod maleate] has an AC50 cell viability (HCT116 [1]) of 7.42 µM and an efficacy (HCT116 [2]) of -92.3%.
For `Cc1ccc([S+](=O)([O-])Cc2nc(-c3ccc(C(=O)NCc4cccnc4)cc3)oc2C)cc1`, the AC50 cell viability (HCT116 [1]) was 0.0372 µM and the efficacy (HCT116 [2]) was -90.9%.
With `c1cc(N[C@@H]2CCNC2)nc(-c2cnc3ccc(-c4cn[nH]c4)cn23)c1` the AC50 cell viability (HCT116 [1]) was 7.42 µM and the efficacy (HCT116 [2]) was -59.7%.
`CC(/C=C/C(=O)NO)=C\[C@@H](C)C(=O)c1ccc(N(C)C)cc1` [Trichostatin A] gave an AC50 cell viability (HCT116 [1]) of 0.332 µM and an efficacy (HCT116 [2]) of -82.3%.
In the case of `Cn1c2ccccc2c2c3c(c4c5ccccc5n(CCC#N)c4c21)CNC3=O` [Go-6976], the AC50 cell viability (HCT116 [1]) is reported as 18.6 µM and the efficacy (HCT116 [2]) is reported as -63%.
Molecule `CN1\N=C(N)/C2=C[N]([C@@H]3O[C@H](CO[P](O)(O)=O)[C@@H](O)[C@H]3O)C4=C2C1=NC=N4` [Triciribine phosphate] has an AC50 cell viability (HCT116 [1]) of 2.95 µM and an efficacy (HCT116 [2]) of -90.5%.
With `CNC(=O)c1ccc(Nc2ncc(C(F)(F)F)c(NCc3nccnc3N(C)[S+](C)(=O)[O-])n2)cc1` [Defactinib] the AC50 cell viability (HCT116 [1]) was 1.86 µM and the efficacy (HCT116 [2]) was -71.4%.
For `Cc1cccc(-c2[nH]c(C(C)(C)C)nc2-c2ccc3nccnc3c2)n1`, the AC50 cell viability (HCT116 [1]) was 20.9 µM and the efficacy (HCT116 [2]) was -85.8%.
Work on `CCC1CCCCN1C(=O)n1ncc(C(O)(c2ccccc2)c2ccccc2)n1` (stereo not given) [ML226] yielded an AC50 cell viability (HCT116 [1]) of 11.8 µM and an efficacy (HCT116 [2]) of -62.9%.
`ClC1=CC=C2OC3=C(\N=C(NC3=O)\[C@@H]4CCCN4)C2=C1` [XL 413 hydrochloride] was tested, and the AC50 cell viability (HCT116 [1]) was 14.8 µM and the efficacy (HCT116 [2]) was -47.6%.
`COc1ccc(-c2cc3c(C)nc(N)nc3n([C@H]3CC[C@H](OCCO)CC3)c2=O)cn1` was tested, and the AC50 cell viability (HCT116 [1]) was 0.332 µM and the efficacy (HCT116 [2]) was -71.8%.
`CN1C/C=C/CCOc2cccc(c2)-c2ccnc(n2)Nc2cccc(c2)C1` [SB-1317] was tested, and the AC50 cell viability (HCT116 [1]) was 0.059 µM and the efficacy (HCT116 [2]) was -70.2%.
For `CC[C@H]1CN2CCc3cc(OC)c(OC)cc3[C@@H]2C[C@@H]1C[C@H]1NCCc2cc(OC)c(OC)cc21` [Emetine], the AC50 cell viability (HCT116 [1]) was 0.0833 µM and the efficacy (HCT116 [2]) was -73.6%.
Work on `C[C@H]1[C@H](OC(=O)CCC(=O)O)O[C@@H]2O[C@@]3(C)CC[C@H]4[C@H](C)CC[C@@H]1[C@@]24OO3` [Artesunate] yielded an AC50 cell viability (HCT116 [1]) of 4.17 µM and an efficacy (HCT116 [2]) of -62.6%.
In the case of `COCCNCc1ccc(-c2cc3nccc(Oc4ccc(NC(=O)C5(C(=O)Nc6ccc(F)cc6)CC5)cc4F)c3s2)nc1` [Sitravatinib], the AC50 cell viability (HCT116 [1]) is reported as 6.61 µM and the efficacy (HCT116 [2]) is reported as -104%.
In the case of `COc1cc2ncnc(Nc3cccc(Br)c3)c2cc1OC`, the AC50 cell viability (HCT116 [1]) is reported as 20.9 µM and the efficacy (HCT116 [2]) is reported as -53%.
Work on `Cn1cc(-c2ccc(F)c(C(F)(F)F)c2)nc1C1CCN(c2ncnc3[nH]ncc23)CC1` yielded an AC50 cell viability (HCT116 [1]) of 16.6 µM and an efficacy (HCT116 [2]) of -40.4%.
With `C[C@@H]1CC2C3C[C@H](F)C\4=C\C(=O)\C=C/[C@]4(C)[C@@]3(F)[C@@H](O)C[C@]2(C)[C@@]1(OC(=O)C5=CC=CO5)C(=O)SCF` (stereo not given in full) [Fluticasone furoate] the AC50 cell viability (HCT116 [1]) was 20.9 µM and the efficacy (HCT116 [2]) was -76.9%.
Work on `COc1cc2c(NC3CCN(C(C)C)CC3)nc(C3CCCCC3)nc2cc1OCCCN1CCCC1` [UNC-0638] yielded an AC50 cell viability (HCT116 [1]) of 8.33 µM and an efficacy (HCT116 [2]) of -94.9%.
`O=C(Nc1ncc(-c2cc(C(F)F)nn2-c2c(Cl)cccc2Cl)s1)C1CC1` [BMS-3] was tested, and the AC50 cell viability (HCT116 [1]) was 0.833 µM and the efficacy (HCT116 [2]) was -68%.
`CC1=C(C)C\2=C(S1)[N]3C(=NN=C3[C@H](CC(=O)NC4=CC=C(OCCOCCOCCOCCNC5=CC=CC6=C5C(=O)N(C7CCC(=O)NC7=O)C6=O)C=C4)\N=C2C8=CC=C(Cl)C=C8)C` (stereo not given in full) [ARV-825] was tested, and the AC50 cell viability (HCT116 [1]) was 0.263 µM and the efficacy (HCT116 [2]) was -73.3%.
`CC(C)c1ccc2c(c1)c(SC(C)(C)C)c(CC(C)(C)C(=O)[O-])n2Cc1ccc(Cl)cc1` [MK-886] was tested, and the AC50 cell viability (HCT116 [1]) was 20.9 µM and the efficacy (HCT116 [2]) was -83.3%.
Work on `NC/1=N/C(=O)N(/C=N1)[C@@H]2O[C@H](CO)[C@@H](O)[C@H]2O` [5-Azacitidine] yielded an AC50 cell viability (HCT116 [1]) of 5.9 µM and an efficacy (HCT116 [2]) of -82.6%.
In the case of `CCCC1OC2C[C@H]3[C@@H]4CCC5=CC(=O)C=C[C@]5(C)[C@H]4C(O)C[C@]3(C)[C@]2(C(=O)CO)O1` (stereo not given in full) [Budesonide], the AC50 cell viability (HCT116 [1]) is reported as 18.6 µM and the efficacy (HCT116 [2]) is reported as -52.3%.
For `CCN1CCN(CC1)CC(=O)NC2=CC=C(C3=C2C4=C(S3)C=CC=C4)C5=C6O\C(=C/C(=O)C6=CC=C5)N7CCOCC7`, the AC50 cell viability (HCT116 [1]) was 1.29 µM and the efficacy (HCT116 [2]) was -81.5%.
`CC(C)C[C@H](NC(=O)c1cc2ccccc2s1)C(=O)N1CCN(C(=O)[C@H](CO)N[S+](=O)([O-])c2ccc(Cl)cc2Cl)CC1` was tested, and the AC50 cell viability (HCT116 [1]) was 16.6 µM and the efficacy (HCT116 [2]) was -76.8%.
With `CC(/C=C/[C@@H]1C[C@]1(C)c1ccc2c(c1)C(C)(C)CCC2(C)C)=C\C(=O)O` the AC50 cell viability (HCT116 [1]) was 23.5 µM and the efficacy (HCT116 [2]) was -66.8%.
For `CN[S+](=O)([O-])c1ccc2c(c1)/C(=C/c1[nH]c3c(c1CCCN1CCN(C)CC1)CCCC3)C(=O)N2` [PRP01-012], the AC50 cell viability (HCT116 [1]) was 14.8 µM and the efficacy (HCT116 [2]) was -103%.
For `Cc1ccc(Nc2ncc3c(n2)N(C)C(=O)N(c2cc(NC(=O)c4cccc(C(F)(F)F)c4)ccc2C)C3)cn1` [GNF-7], the AC50 cell viability (HCT116 [1]) was 0.0332 µM and the efficacy (HCT116 [2]) was -69.3%.
With `CCNc1cc(NC2CCC(O)CC2)nc(Nc2ccc3c(ccn3Cc3ccccc3)c2)n1` (stereo not given) [Cdk4/6 Inhibitor IV] the AC50 cell viability (HCT116 [1]) was 20.9 µM and the efficacy (HCT116 [2]) was -51.1%.
With `C=CCNC1=C2C[C@@H](C)C[C@H](OC)[C@H](O)[C@@H](C)/C=C(\C)[C@H](OC(N)=O)[C@@H](OC)/C=C\C=C(/C)C(=O)NC(=CC1=O)C2=O` [Tanespimycin] the AC50 cell viability (HCT116 [1]) was 3.72 µM and the efficacy (HCT116 [2]) was -65.7%.
Work on `Clc1ccc(C(Cn2ccnc2)OCc2ccsc2Cl)c(Cl)c1` (stereo not given) [Tioconazole] yielded an AC50 cell viability (HCT116 [1]) of 18.6 µM and an efficacy (HCT116 [2]) of -84.3%.
`CCCCC(=O)OCC(=O)[C@]1(O)Cc2c(O)c3c(c(O)c2[C@@H](O[C@H]2C[C@H](NC(=O)C(F)(F)F)[C@H](O)[C@H](C)O2)C1)C(=O)c1c(OC)cccc1C3=O` [Valrubicin] showed an AC50 cell viability (HCT116 [1]) of 1.86 µM and an efficacy (HCT116 [2]) of -88.9%.
`O=C(O)c1ccc(O)c2ncc(N3CCOCC3)cc12` was tested, and the AC50 cell viability (HCT116 [1]) was 23.5 µM and the efficacy (HCT116 [2]) was -43%.
`CC[C@@H](C)Nc1cc(C(=O)NC2CC3CCC(C2)N3c2ccc(C(=O)C3CC3)cn2)c(C)cc1C(N)=O` (stereo not given in full) [XL-888] was tested, and the AC50 cell viability (HCT116 [1]) was 0.118 µM and the efficacy (HCT116 [2]) was -56.5%.
`CC(=O)O/N=C1/C(=C2\C(=O)Nc3cc(Br)ccc32)Nc2ccccc21` [6-Bromoindirubin-3'-acetoxime] was tested, and the AC50 cell viability (HCT116 [1]) was 10.5 µM and the efficacy (HCT116 [2]) was -92.3%.
